Laboratory results as given in patent US20100285509A1, “Melanoma-Associated Endogenous Retrovirus (MERV) Derived Peptide Sequences And Their Therapeutic/Diagnostic Use” (priority 2005, published 2010).
Where no end group is shown, it is not given here.

Key:
Assay type in all cases: binding, human
melanoma sera pool [1] = test: Epitope screening ELISA of biotinylated peptides with melanoma sera pool; details: FIG. 2
Method: FIG. 2: Selected candidate peptides by Epitope prediction were tested with a melanoma sera pool and a reference sera pool respectively. The mouse derived control peptides K1 (Biotin-SGSG-KPLAQ-NH2) and K2 (Biotin-SGSG-GLAQ-NH2) were used as negative and positive control peptides. ELISA readout of patient sera pool (black bars) given as absorbance determined at 405 nm. All given A405 nm values refer to the measured A405 nm value of each sample minus the blank.
Serum specimens were collected from melanoma patients (diagnosis confirmed by histopathology) at the Department of Dermatology, Medical University of Vienna, Austria. Staging of patients and according classification of sera followed the 2001 US Joint Committee on Cancer guidelines (Balch 2001). Usage of patient sera was approved by the ethical committee of the Medical University of Vienna, confidentially of the study subjects has been protected by respective sample coding. Sera from healthy donors served as negative controls. All sera were stored at −20° C. immediately after blood withdrawal. Melanoma patient derived sera pools and respective reference sera pools from healthy subjects were used for epitope screening and further peptide testing.
Streptavidin-coated 96-well microtiter plates (Mimotopes Pty Ltd., Australia) were blocked with 200 μl/well of 2% bovine albumine (Sigma-Aldrich) in PBST (PBS [0.1 M sodium phosphate, 0.15 M NaCl, pH 7.0]+0.1% v/v Tween20 (PBST)) over night at 4° C. The wells were then washed four times with PBST and incubated with 100 μl/well of 1:500 diluted biotinylated peptides for 2 hours at room temperature. 2 wells per plate were incubated with PBST in the absence of peptide (blank wells). Plates were washed 4 times with PBST. Subsequently, 100 μl of a melanoma-sera pool, diluted 1:40 in 1% bovine albumine/PBST and a reference serum pool (1:40) were added to each well and incubated for 2 h at room temperature. The plate was washed 4 times with PBST and incubated with 100 μl/well of the secondary antibody: goat anti-human IgG (h+l) antibody alkaline-phosphatase conjugated (BETHYL Laboratories, Inc., USA). Detection antibody was diluted 1:1000 in blocking solution and incubated for 1 hour. After 6 washing steps with PBST, 200 μl of a 1.0 mg/ml p-Nitrophenylphosphat substrate solution in 0.2 M Tris-buffer (Sigma-Aldrich) was added to each well. Absorbance was measured on a BDSL Immunoskan PLUS at 405 nm.
During initial screening of various peptides reactive peptides to the melanoma patient derived sera pool were selected and also validated by determining the reactivity to the reference sera pool obtained from healthy volunteers. […] These peptides were tested to determine the experimental antigenicity.

melanoma sera pool [2] = test: Peptide testing ELISA, unbiotinylated peptides coated on Nunc Maxisorp F plates; details: for absorbance (A405 nm): melanoma sera pool dilution 1:50
Method: FIG. 5: Reactivity of serum antibodies with 2 MERV specfic partial overlapping peptides (GHB-G1 and GHB-H1) and 1 autoimmune-related peptide (GHB-17′) tested with 3 different melanoma-sera and reference sera pool dilutions respectively. An HIV peptide was used as negative control peptide. All given A405 nm values refer to the measured A405 nm value of each sample minus the blank.
NUNC Maxisorp F plates were coated with 1.0 μg peptide/well in 100 μl coating buffer (0.1 M sodium carbonate buffer, pH 9.5). 1 well per plate was coated with 100 μl of coating buffer without antigen (blank well). Plates were incubated over night at 4° C. Then plates were washed four times with PEST. Unspecific binding sites were blocked with 200 μl/well of 2% bovine albumine (Sigma-Aldrich) in PBST (PBS+0.1% v/v Tween20 (PBST)) for 1 hour at room temperature. The plates were washed 4 times with PBST. For the assay 100 μl/well of three different sera pool-dilutions (1:50, 1:200, 1:1600) diluted in 1% bovine albumine/PBST were added and incubated for 2 h at room temperature. Plates were washed 4 times with PBST and incubated with 100 μl/well of the secondary antibody: goat anti-human IgG (h+l) antibody alkaline-phosphatase conjugated, obtained from BETHYL Laboratories, Inc., USA (detection antibody was diluted 1:1000 in blocking solution) for 1 hour. After additional 6 times washing step with PBST, color was developed with 200 μl/well of a 1.0 mg/ml p-Nitrophenylphosphat substrate solution in 0.2 M Tris-buffer (Sigma-Aldrich). Absorbance was measured on a BDSL Immunoskan PLUS at 405 nm.
The peptides were tested with the same sera pools as given for the experiments above. As negative control peptide an HIV-derived peptide ([…]) with 1 μg/well was used.
Herve et al. characterise retroviral peptides in the context of autoimmune diseases. […] All three peptides were tested with three melanoma sera pool dilutions ([…], 1:200 and 1:1600). Peptides were coated on Nunc Maxisorp F plates and used to capture serum antibodies, which were then detected using goat anti-human IgG antibodies as shown in FIG. 5. […] GHB-G1 gave a signal of 1.50 even at a melanoma: sera pool dilution 1:200.

[3] = test system: serum samples from melanoma patients; test: Optimised ELISA on individual serum samples from melanoma patients; details: 31 melanoma serum samples; positive = value of 0.39 or above
Method: NUNC Polysorp F Peptide Immobiliser plates were coated with 0.125 μg peptide/well in 100 μl coating buffer ((0.1 M sodium carbonate buffer, pH 9.5). Plates were incubated over night at 4° C. Plates were then washed four times with PBST and unspecific binding sites were blocked with 200 μl/well of 2% bovine albumine (Sigma-Aldrich) in PBST (PBS+0.1% v/v Tween20 (PBST)) for 1 hour at room temperature. The plates were washed 4 times with PBST. For the assay 100 μl/well of serial-dilutions of the sera (initial dilution 1:200 in 1% bovine albumine/PBST were added and incubated for 2 h at room temperature. Plates were washed 4 times with PEST and incubated with the secondary antibody (100 μl/well). As secondary antibody an alkaline-phosphatase conjugated goat anti-human IgG (h+1) (BETHYL Laboratories, Inc., USA) diluted 1:1000 in blocking solution was used. Incubation period was 1 hour. After another 6 washing steps with PBST, the substrate was added (1.0 mg/ml p-Nitrophenylphosphat Sigma-Aldrich) in 0.2 M Tris-buffer 200 μl/well) Absorbance was measured on a BDSL Immunoskan PLUS at 405 nm.
For analysis of serum samples from melanoma patients, Nunc Polysorp Immobilizer Amino plates were used. […] 16 serum samples from healthy individuals served as controls to establish a negative treshold, as calculated by the average absorbance plus three standard deviations. […]

melanoma sera pool [4] = test: Epitope mapping ELISA of 25 overlapping env-peptides (FIG. 4); details: A405 nm melanoma sera pool minus reference sera pool
From the text: FIG. 4: Epitope mapping of 25 overlapping env-peptides tested with a patient sera pool and a reference sera pool as described above. The first bar represents amino acid 204-220, the second bar represents amino acid 205-221, etc. Del A405 nm refers to the measured A405 nm values of the melanoma sera pool minus the A405 nm values of the reference sera pool of each peptide. One experiment of two performed is shown. Mean values from duplicate trials are shown.
Streptavidin-coated 96-well microtiter plates (Mimotopes Pty Ltd., Australia) were blocked with 200 μl/well of 2% bovine albumine (Sigma-Aldrich) in PBST (PBS [0.1 M sodium phosphate, 0.15 M NaCl, pH 7.0]+0.1% v/v Tween20 (PBST)) over night at 4° C. The wells were then washed four times with PBST and incubated with 100 μl/well of 1:500 diluted biotinylated peptides for 2 hours at room temperature. 2 wells per plate were incubated with PBST in the absence of peptide (blank wells). Plates were washed 4 times with PBST. Subsequently, 100 μl of a melanoma-sera pool, diluted 1:40 in 1% bovine albumine/PBST and a reference serum pool (1:40) were added to each well and incubated for 2 h at room temperature. […] Absorbance was measured on a BDSL Immunoskan PLUS at 405 nm. […]

Row | Sequence | reactivity ranking among the 46 tested peptides (melanoma sera pool [1]) | absorbance (A405 nm) (melanoma sera pool [2]; FIG. 5) | also measured
1 | EMQRKAPPRRRRHRNRA (also: biotinylated (site not given here)) [Peptide A1, Env aa 5-21] | most reactive | – | –
2 | PAELQYRPPPESQYGYP (also: biotinylated (site not given here)) [Peptide E3, Gag aa 219-235] | most reactive | – | –
3 | FRPKGKPCPKEIPKESK (also: biotinylated (site not given here)) [Peptide H1, Env aa 220-236] | most reactive | above 0.50 | –
4 | SYQRSLKFRPKGKPCPKEIP (Melanoma Associated Endogenous Retrovirus) [SEQ ID NO 69, unbiotinylated 20-mer covering peptides 10-13, env aa 213-232] | – | – | reactivity compared to unbiotinylated 17-mer peptide G1 (melanoma sera pool [2]; unbiotinylated peptides, independent experiment): did not exhibit a significant improvement
5 | YQRSLKFRPKGKPCPKE (Melanoma Associated Endogenous Retrovirus) [Peptide G1, Env aa 214-230] | most reactive | ~1.50 | absorbance signal (A405 nm) (melanoma sera pool [2]; melanoma sera pool dilution 1:200, FIG. 5): 1.50; melanoma sera that did not recognise the epitope [3]: 16; melanoma serum samples reacting positive [3]: 15 out of the 31; reactivity (Del A405 nm) (melanoma sera pool [4]): lower absorbance in the assay than the three neighbour peptides
6 | PWGWGEKGISTPRPKIV (also: biotinylated (site not given here)) [Peptide E2, Env aa 312-328] | most reactive | – | –
